Results: patent US11766414B2, “Compositions, delivery systems, and methods useful in tumor therapy” (Indi Molecular, Inc., priority 2020, dated 2023)
Read-outs that look alike come from different tables or passages of the source. Starred links: 1 amine or outer side, 2 acyl side, 3 side chain; linkers in the order of their positions; H or OH if unused. Positions of bridges follow the written chain, without caps; N, C: chain ends. Non-standard residues stand in square brackets, D forms with d. Residues, ends and D or L forms follow the SMILES beside them. Triazole bridges read from a SMILES are 1,4-linked. *: point of attachment. DOTA = O=C(O)CN1CCN(CC(=O)O)CCN(CC(=O)*)CCN(CC(=O)O)CC1; Pteroyl = Nc1nc2ncc(CNc3ccc(C(=O)*)cc3)nc2c(=O)[nH]1; Biotin = O=C1N[C@H]2[C@H](CS[C@H]2CCCCC(=O)*)N1; PEG10 = NCCOCCOCCOCCOCCOCCOCCOCCOCCOCCOCCC(=O)O; Lys(N3) = [N-]=[N+]=NCCCC[C@H](N)C(=O)O; γGlu = O=C(O)[C@H](CCC(=O)[*:2])N[*:1]; Pra = C#CC[C@H](N)C(=O)O

Experiments:
[1] = human plasma
Experimental: (§1) Plasma was thawed in a 37° C. water bath. Residual clots were removed via centrifugation at 4000 rpm for 5 minutes. The pH of the plasma was adjusted to 7.4 if required. Test articles were diluted to 100 μM by diluting a 1 mM working solution (in DMSO) with 45% methanol in water. To 98 μL of plasma was added 2 μL of the 100 μM solution, resulting in 2 μM final concentration of the test article. Samples were incubated at 37° C. in a water bath. At the indicated time points (0, 10, 30, 60, 120 minutes) 100 μL of 4% H3PO4 was added followed by 800 μL of stop solution (200 ng/mL tolbutamide and 200 ng/mL labetalol in 100% acetonitrile). The samples were centrifuged and the plasma protein-free supernatant (100 μL) was subjected to LC-MS/MS analysis.

[2] = human plasma; remark: listed apart in the source
Experimental: as §1

[3] = mouse
Experimental: as §1

FOLR1 [4] = target: T1, FOLR1 (Homo sapiens, UniProt P15328); experiment: ELISA assay of FOLR1 binding
Text: FIG. 5 is a diagram of ELISA assay of FOLR1 binding of heterobiligands.

[5] = target: mouse recombinant FOLR1 (rMuFOLR1) (Mus musculus, UniProt P35846); experiment: ELISA cross reactivity with mouse recombinant FOLR1; type: binding; conditions: cross reactivity experiment
Text: Further evaluation of the folate-hshta (SEQ ID NO:6) Nterm heterobiligand depended on cross reactivity with mouse recombinant FOLR1 (rMuFOLR1). The heterobiligand binds to both species' variants of FOLR1 with high affinity. This observation was expected given the high homology between the two variants (approximately 92%).

[6] = system: OVCAR3 FOLR1+ cells (PC-3 FOLR1− cells as negative line); experiment: Flow cytometry binding to FOLR1 (+) and FOLR1 (−) cell lines; type: cell-based, human; conditions: OVCAR3 vs PC-3, flow cytometry
Experimental: Both the kyeet (SEQ ID NO:9) and hshta (SEQ ID NO:6)-derived biligands were tested by flow cytometry for binding to FOLR1 (+) and FOLR1 (−) cell lines (FIGS. 6 and 7). The human ovarian adenocarcinoma-derived cell line OVCAR3 has robust FOLR1 expression and was selected as the FOLR1 (+) cell line. The human prostate adenocarcinoma-derived cell line PC-3 was selected as a FOLR1 (−) cell line.

OVCAR3 cells [7] = experiment: Competition at the cellular level with exogenous folic acid (flow cytometry); type: cell-based, human
Text: Competition at the cellular level was also probed.

FOLR1 [8] = target: T1, FOLR1; experiment: Folic acid competition ELISA; type: binding
Experimental: A competition experiment was conducted to further understand the binding kinetics of the lead heterobiligand (folate-hshta (SEQ ID NO:6) Nterm heterobiligand).

OVCAR3 cells [9] = experiment: Cell penetration / internalization assays (acid wash flow cytometry, fluorescence microscopy); type: cell-based, human
Experimental: FIG. 10 is a diagram of an assay for assessing cell internalization FOLR1 heterobiligands.
The folate-hshta (SEQ ID NO:6) Nterm heterobiligand was also evaluated in cell penetration imaging assays (FIG. 10). OVCAR3 and PC-3 cells were incubated with the test article at 37° C. for 1 hour. Flow cytometry analysis of the resulting treated cells indicated strong binding to FOLR1 (+) cells. To understand the proportion bound to the surface but not internalized, the cells were briefly washed with acid to liberate the non-internalized peptide.
To further understand intracellular trafficking of the Nterm heterobiligand, these dye-labeled compounds were imaged by fluorescence microscopy. The cells were counterstained with BioTracker 490, which stains membranes, and Rab5a+, an endosomal stain. […] Low levels of DyLight650 was detected within PC-3 (FOLR1−) cells. Taken together, internalization of the heterobiligand appears to be receptor driven and selective for FOLR1 (+) cells.

T1 sequence (P15328 25-234): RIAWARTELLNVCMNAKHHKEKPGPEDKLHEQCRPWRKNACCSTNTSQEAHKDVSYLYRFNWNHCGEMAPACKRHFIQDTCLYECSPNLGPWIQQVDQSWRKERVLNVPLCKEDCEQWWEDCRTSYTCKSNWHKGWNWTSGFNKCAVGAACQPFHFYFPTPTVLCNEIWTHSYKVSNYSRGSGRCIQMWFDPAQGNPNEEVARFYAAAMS
Sequence of mouse recombinant FOLR1 (rMuFOLR1) (P35846 25-232): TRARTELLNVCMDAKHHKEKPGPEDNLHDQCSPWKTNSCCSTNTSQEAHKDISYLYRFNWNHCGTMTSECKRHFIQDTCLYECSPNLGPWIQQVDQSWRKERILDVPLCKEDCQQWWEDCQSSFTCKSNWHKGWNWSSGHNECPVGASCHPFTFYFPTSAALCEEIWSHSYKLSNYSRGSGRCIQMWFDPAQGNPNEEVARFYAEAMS

SMILES | Plasma Stability (t 1/2), Hu [1] | half-life [2] | Plasma Stability (t 1/2), Mu [3] | greater affinity than folate itself (FOLR1 [4]; ELISA) | EC50 (FOLR1 [4]; biotin-labeled constructs with MPBA or DOTA tag, read-out: EC50) | EC50 (FOLR1 [4]; cross reactivity experiment, read-out: Ec50, Human FOLR1) | EC50 [5] | binding selectivity for FOLR1 (+) cells over FOLR1 (−) cells [6] | percentage of OVCAR3 cells binding (OVCAR3 cells [7]; 0.1 μg/mL folate) | percentage of OVCAR3 cells binding (OVCAR3 cells [7]; no folate) | binding affinity of the heterobiligand with folic acid doped in (FOLR1 [8]; folic acid from 0 to 500 nM) | binding of the heterobiligand with folic acid doped in (FOLR1 [8]; folic acid greater than 500 nM) | percentage of positively stained cells (OVCAR3 cells [9]; OVCAR3, 37° C. 1 hour, before acid treatment) | percentage of positively stained cells (OVCAR3 cells [9]; OVCAR3, following acid treatment)
C[C@H](O)[C@H]1NC(=O)[C@@H](Cc2cnc[nH]2)NC(=O)[C@@H](CO)NC(=O)[C@@H](Cc2cnc[nH]2)NC(=O)[C@@H](NC(=O)CC[C@H](NC(=O)c2ccc(NCc3cnc4nc(N)[nH]c(=O)c4n3)cc2)C(=O)O)Cc2cn(nn2)CCCC[C@@H](C(=O)NCC(=O)N[C@@H](Cc2ccccc2)C(=O)N[C@@H](CCCCNC(=O)CN2CCN(CC(=O)O)CCN(CC(=O)O)CCN(CC(=O)O)CC2)C(=O)O)NC(=O)[C@@H](C)NC1=O [compound 7327, folate-hshta-Gly-Phe-Lys(DOTA)] ({Pteroyl-γGlu}-[Pra][dH][dS][dH][dT][dA][Lys(N3)]GFK(DOTA)-OH; triazole 1-7) | Hu: >6937.7 min | > 115 h | Mu: >6937.7 min |  |  |  |  |  |  |  |  |  |  | 
C[C@H](O)[C@H]1NC(=O)[C@@H](Cc2c[nH]cn2)NC(=O)[C@@H](CO)NC(=O)[C@@H](Cc2c[nH]cn2)NC(=O)[C@@H](NC(=O)CC[C@H](NC(=O)c2ccc(NCc3cnc4nc(N)[nH]c(=O)c4n3)cc2)C(=O)O)Cc2cn(nn2)CCCC[C@@H](C(=O)NCCOCCOCCOCCOCCOCCOCCOCCOCCOCCOCCC(=O)NCCOCCOCCOCCOCCOCCOCCOCCOCCOCCOCCC(=O)N[C@@H](CCCCNC(=O)CCCC[C@@H]2SC[C@@H]3NC(=O)N[C@@H]32)C(N)=O)NC(=O)[C@@H](C)NC1=O [Folate-hshta Nterm, Folate-hshta-PEG10-PEG10-K(Biotin)] ({Pteroyl-γGlu}-[Pra][dH][dS][dH][dT][dA][Lys(N3)][PEG10][PEG10]K(Biotin)-NH2; triazole 1-7) |  |  |  | ~30 fold | 0.065 nM | 0.35 nM | 0.33 nM | high selectivity | 57% | 76.6% | virtually unchanged | partially compete away | 73.4% | 54.2%
